Data on 2 compounds can be found in patent publication EP0728480A1, “Use of ifenprodil for treatment of elevated intraocular pressure” (ROHTO PHARMACEUTICAL CO., LTD., priority 1995, dated 1996).

This assay relates to rabbits with normal intraocular pressure. The experiment in a line: Experiment 1: ocular hypotensive effect of eye drops (applanation pneumatonograph). The assay is classed as in vivo, Male Dutch species coloured rabbits. To be noted: for Difference in IOP between the control and test eyes: 50 µl instilled. The procedure:
The ocular hypotensive effect of the eye drops of this invention was investigated in rabbits. The same experiment was also conducted using a representative β-adrenergic blocking agent, and its ocular hypotensive effect was compared with that of eye drops of this invention. Methods: According to the formulations described in Examples 1, 2 and 3, three kinds of eye drops respectively containing 0.5, 0.05 and 0.005% of the compound (1) were prepared. As a negative control, eye drops not containing compound (1), which is eye drops described in Reference Example below, were used. The positive control was commercially available eye drops containing timolol maleate (0.5% equivalent of free base) as an active ingredient. Male Dutch species coloured rabbits (body weight: ca. 2 kg) with normal intraocular pressure were used in the experiment. Each of the test solutions (three kinds of eye drops containing 0.5, 0.05 or 0.005% of ifenprodil) (50 µl) was instilled into one eye of each rabbit, and the control solution free of ifenprodil (50 µl), the eye drops described in Reference Example, into the fellow eye which served as a control. For each solution, six rabbits were used. After anesthesia of the corneal surface by instillating 5 µl of 0.4% oxybuprocaine hydrochloride, the intraocular pressure was measured using an applanation pneumatonograph (Alcon) before and after the instillation of the test solution and control solution. Measurement of intraocular pressure after the instillation was conducted with one-hour intervals until six hours - nine hours post-instillation.

[1] abbreviates: eye drops 0.5%, one hour after instillation, difference from control eye.

Where a name gives a salt, the structure may show the parent alone.

As for `CC(C(O)c1ccc(O)cc1)N1CCC(Cc2ccccc2)CC1` (centres unmarked) [Compound (1), 2-(4-benzylpiperidino)-1-(4-hydroxyphenyl)-1-propanol], the IOP reduction result (eye drops 0.005%) is reported as “produced IOP reduction which varies depending on concentration of compound (1)”. Also, the “Difference in IOP between the control and test eyes” value (shortened to “Difference”) reads like this: (eye drops 0.005% free base, 1 hr) -0.79 mmHg; (eye drops 0.005% free base, 2 hr) -0.75 mmHg; (eye drops 0.005% free base, 4 hr) -0.79 mmHg; (eye drops 0.005% free base, 6 hr) -0.17 mmHg; (eye drops 0.05% free base, 1 hr) -1.79 mmHg; (eye drops 0.05% free base, 2 hr) -0.96 mmHg. The “Difference” value was -0.67 mmHg (eye drops 0.05% free base, 4 hr); -0.38 mmHg (eye drops 0.05% free base, 6 hr); -2.67 mmHg (eye drops 0.5% free base, 1 hr); -2.17 mmHg (eye drops 0.5% free base, 2 hr); -1.17 mmHg (eye drops 0.5% free base, 4 hr); -1.13 mmHg (eye drops 0.5% free base, 6 hr). Moreover, the “average IOP reduction” value was determined as 1.8 mmHg (eye drops 0.05%, one hour after administration) and 2.7 mmHg under setting [1]. Under “eye drops 0.5%”, the “duration of ocular hypotensive effect” value was “retained for nine hours after instillation”. Moreover, the “time of maximal IOP reduction” value (eye drops 0.5%) is “one hour after instillation”.

In the case of `CC(C)(C)NC[C@H](O)COc1nsnc1N1CCOCC1` [Timolol maleate, timolol maleate, reference compound], the “Difference” value reads like this: (eye drops 0.5% free base, 1 hr) -0.88 mmHg; (eye drops 0.5% free base, 2 hr) -0.58 mmHg; (eye drops 0.5% free base, 4 hr) -0.25 mmHg; (eye drops 0.5% free base, 6 hr) -0.13 mmHg. The “average IOP reduction” value under setting [1] is given as 0.9 mmHg and the “average IOP reduction” value (eye drops 0.5%, two hours after administration) was found to be 0.6 mmHg.
